Source: patent US8207182B2, “Substituted cyclic urea derivatives and the use thereof as vanilloid receptor 1 modulators” (Gruenenthal GmbH, priority 2005, dated 2012)

Target: T1, vanilloid receptor 1 (VR1/TRPV1) (Rattus norvegicus, UniProt O35433)
T1 construct: from tissue; host or cells: primary cells dissociated from rat dorsal root ganglia (DRGs), cultured for two to three days
Experiment: Functional investigation on the vanilloid receptor 1 (FLIPR Ca2+ influx assay, capsaicin)
Assay type: cell-based
Conditions: rat dorsal root ganglia cells, Fluo-4 FLIPR, 100 nM capsaicin
Description: I. Functional Investigation on the Vanilloid Receptor 1 (VRI/TRPV1 Receptor)
The agonistic or antagonistic action of the substances to be investigated on the vanilloid receptor 1 (VR1/TRPV1) of the species rat can be determined using the following assay. According to this assay, the Ca^2+ influx through the receptor channel is quantified with the aid of a Ca^2+-sensitive dye (Type Fluo-4, Molecular Probes Europe BV, Leiden Netherlands) in a fluorescent imaging plate reader (FLIPR, Molecular Devices, Sunnyvale, USA).
Complete medium: 50 mL of HAMS F12 Nutrient Mixture (Gibco Invitrogen GmbH, Karlsruhe, Germany) with
10% by volume of FCS (fetal calf serum, Gibco Invitrogen GmbH, Karlsruhe, Germany, heat-inactivated);
2 mM L-glutamine (Sigma, Munich, Germany);
1% by weight of AA solution (antibiotic/antimycotic solution, PAA, Pasching, Austria) and 25 ng/mL of Medium NGF (2.5 S, Gibco Invitrogen GmbH, Karlsruhe, Germany) […]
The DRGs are in each case repeatedly suspended, drawn through No. 1, No. 12 and No. 16 needles by means of a syringe and transferred to 50 mL Falcon tubes and these are filled to 15 mL with complete medium. […] The resulting pellet is in each case taken up in 250 μL of complete medium and the cell count is determined. […]

T1 sequence (O35433 whole entry): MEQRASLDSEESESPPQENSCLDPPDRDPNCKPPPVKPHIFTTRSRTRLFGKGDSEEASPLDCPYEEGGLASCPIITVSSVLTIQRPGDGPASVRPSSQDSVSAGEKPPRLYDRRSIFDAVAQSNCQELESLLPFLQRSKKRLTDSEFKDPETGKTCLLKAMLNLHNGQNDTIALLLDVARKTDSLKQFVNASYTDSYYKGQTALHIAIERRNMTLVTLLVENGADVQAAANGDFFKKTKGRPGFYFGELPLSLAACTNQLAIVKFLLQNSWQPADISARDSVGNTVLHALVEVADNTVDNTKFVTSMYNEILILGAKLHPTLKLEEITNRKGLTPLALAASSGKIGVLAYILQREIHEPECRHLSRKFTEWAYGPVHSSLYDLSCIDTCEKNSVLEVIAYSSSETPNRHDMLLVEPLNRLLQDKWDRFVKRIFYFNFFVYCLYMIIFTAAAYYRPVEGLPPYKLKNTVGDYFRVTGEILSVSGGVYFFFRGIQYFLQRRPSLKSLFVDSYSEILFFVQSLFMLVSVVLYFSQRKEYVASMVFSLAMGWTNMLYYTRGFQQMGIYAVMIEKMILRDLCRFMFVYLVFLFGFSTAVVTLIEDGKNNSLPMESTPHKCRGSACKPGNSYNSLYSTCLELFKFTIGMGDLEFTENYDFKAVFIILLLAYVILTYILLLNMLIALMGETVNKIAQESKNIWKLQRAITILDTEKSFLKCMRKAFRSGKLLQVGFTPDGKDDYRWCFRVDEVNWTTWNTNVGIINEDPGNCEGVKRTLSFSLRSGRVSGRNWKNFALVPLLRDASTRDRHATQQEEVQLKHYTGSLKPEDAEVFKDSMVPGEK

| IC50 [µM] | SMILES |
| --- | --- |
| 2.9 | CC(C)(C)c1ccc(CN2CCCN(Cc3ccc(NS(C)(=O)=O)cc3)C2=O)cc1 [Example 5, N-{4-[3-(4-tert-butylbenzyl)-2-oxotetrahydropyrimidin-1-ylmethyl]-phenyl}methanesulfonamide] |
| 9.4 | CC(C)(C)c1ccc(CN2CCN(Cc3ccc(NS(C)(=O)=O)cc3)C2=O)cc1 [Example 4, N-{4-[3-(4-tert-butylbenzyl)-2-oxoimidazolidin-1-ylmethyl]-phenyl}methanesulfonamide] |
